Reference: US11752162B2, “Compounds and compositions for treating solid tumors by intratumoral administration” (Novartis AG, priority 2017, dated 2023)

Key:
[1] = Wistar rat subcutaneous PK dose study (Example 9); format: in vivo; settings: sc, 600 ug, 600 μg Compound 15 s.c., male Wistar rats, plasma
Method: The pharmacokinetic properties of Compound 15 were examined in naïve male Wistar rats following: • a) a single 200 μL subcutaneous (s.c.) injection of 600 μg of free form Compound 15 in 100 mM Tris buffer pH 7.4; • b) a single 200 μL subcutaneous (s.c.) injection of 50 μg of Compound 15 adsorbed to aluminum hydroxide at a 1:2.5 ratio (w/w) of Compound 15 to aluminum hydroxide-Suspension E described below; • c) a single 200 μL subcutaneous (s.c.) injection of 200 μg of Compound 15 adsorbed to aluminum hydroxide at a 1:2.5 ratio (w/w) of Compound 15 to aluminum hydroxide-Suspension D described below, and • d) a single 200 μL subcutaneous (s.c.) injection of 600 μg of Compound 15 adsorbed to aluminum hydroxide at a 1:2.5 ratio (w/w) of Compound 15 to aluminum hydroxide-Suspension C described below.
In this study, male Wistar rats (n=3 per group) were injected subcutaneously (s.c.) with 600 μg free Compound 15 or increasing doses of 50, 200 and 600 μg of Compound 15 absorbed to aluminum hydroxide. An injection volume of 200 μL of Suspension E, Suspension D and Suspension C was used to obtain 50, 200 and 600 μg of Compound 15 absorbed to aluminum hydroxide, respectively. The injection volume of 200 μL per rat was not normalized to body weights of the rats. As described above the Compound 15/aluminum hydroxide ratio for Suspension E, Suspension D and Suspension C was fixed at 1:2.5 w/w.
Blood samples (˜100 μL each) were taken serially via saphenous bleed from each rat until 96 h post dose (see Table 9 for sampling schedule). Blood samples were centrifuged to separate plasma and the plasma samples were frozen at −20° C. prior to analysis using LC/MS/MS (as described in Example 5) to obtain the systemic concentrations of Compound 15.

[2] = female, C57/BL6, mouse, in vivo, iv, 2 mg/kg
A20 tumors = test: Mouse syngeneic lymphoma A20 bilateral tumor model, single agent dose response; format: in vivo; settings: Compound 15 alone i.t., two weekly doses
Method: The anti-tumor efficacy of Compound 15 adsorbed to Alhydrogel® was determined using the mouse syngeneic lymphoma A20 bilateral tumor model in female BALB/c mice.
A20 cells were grown in sterile conditions in a 37° C. incubator with 5% CO2 for two weeks. Cells were grown in RPMI 1640 medium with 2 mM L-glutamine adjusted to contain 1.5 g/L sodium bicarbonate, 4.5 g/L glucose, 10 mM HEPES, and 1.0 mM sodium pyruvate and supplemented with 0.05 mM 2-mercaptoethanol, 10% fetal bovine serum. Cells were passaged every 2-3 days. For the day of implant cells were lifted (passage 12) and re-suspended in HBSS at a concentration of 5×10^6 cells/100 μL. Cells were Radil tested for mycoplasma and murine viruses. For each mouse, 5×10^6 cells were implanted by subcutaneous injection into the right and left flank using a 28.5 g needle (100 μl injection volume). Tumor sizes were assessed three times a week once tumors were palpable. Tumor sizes were determined by using caliper measurements, with tumor volumes calculated using the formula: (Length×Width×Width)/2.
The female Balb/c mice bearing the A20 tumors were randomized into 7 groups (n=10 mice per group) 8 days post tumor cell implantation with an average tumor volume range of 111.40±23.57 mm^3. […]
Tumor volumes were measured by digital caliper 3 times a week and body weights of all animals were recorded throughout the study. […]

[3] = Binding efficiency of Compound 15 to aluminum-containing particles (Alhydrogel) in Tris buffer; format: physicochemical
Source text: The efficiency of binding of compounds of Formula (A) to aluminum-containing particles, as reflected in the percentage (%) bound to aluminum-containing particles, is a function of the (weight/weight) ratio of aluminum-containing particles to compound and to the final concentration (mg/mL) of compound in suspension with aluminum hydroxide. By way of example, the dependence of binding efficiency on the aluminum-containing particles to compound (w/w) ratio is shown in Table 8, where the final concentration of Compound 15 is fixed at 2 mg/mL and the amount of aluminum hydroxide is varied to obtain the desired ratio. The percentage of Compound 15 bound were obtained as described above in the “Materials and Method”, and the suspensions of Compound 15/Alhydrogel® were prepared in 20 mM Tris buffer (pH 7.4) as described above in “Compound 15/Alhydrogel® Suspensions”.
In addition, for (w/w) ratios of aluminum-containing particles to compound of 1.5:1 and below, the binding efficiency has an apparent pH dependence. The effect of pH on binding efficiency is seen in Table 10, where the binding efficiency of Compound 15 at either a ratio of aluminum hydroxide to Compound 15 (w/w) of 1.5:1 or 2:1 is given shown. The percentage of Compound bound was obtained as described above, although in Tris buffer at differing pH values. The suspensions of Compound 15/Alhydrogel® in Tris buffer at various were prepared as described above in “Compound 15/Alhydrogel® Suspensions”.

[4] = Compound 15 2 mg/mL, aluminum 0.2 mg/mL, ratio 0.1:1, 20 mM Tris pH 7.4
[5] = Compound 15 2 mg/mL, aluminum 4 mg/mL, ratio 2:1, 20 mM Tris pH 7.4

In the case of `Cc1cc(OCCOCCC(F)(F)P(=O)(O)O)ccc1CCc1cnc2c(N)nc3cc(CCC(=O)O)ccc3c2c1` [Compound 15, 3-(5-amino-2-(4-(2-(3,3-difluoro-3-phosphonopropoxy)ethoxy)-2-methylphenethyl)benzo[f][1,7]naphthyridin-8-yl)propanoic acid], the AUC(0-inf) [1] is reported as 2560 ng·h/mL, the Cmax [1] is reported as 3660 ng/mL and the Tmax [1] is reported as 0.25 h. The half-life [1] was 2.1 h, the “plasma clearance as % of mouse liver blood flow” value [2] was ~20% and the “tumor growth, both tumor sites” value (A20 tumors) was “no significant difference in both tumor sites”. The “Compound 15 % Bound” value [3, 4] was 12.5%, the “Compound 15 % Free” value [3, 4] was 87.5% and the “Compound 15 % Bound” value ([3]; Compound 15 2 mg/mL, aluminum 0.5 mg/mL, ratio 0.25:1, 20 mM Tris pH 7.4) was 25.7%. For the same compound, the “Compound 15 % Free” value ([3]; Compound 15 2 mg/mL, aluminum 1 mg/mL, ratio 0.5:1, 20 mM Tris pH 7.4) was 56.5%, the “Compound 15 % Bound” value [3, 5] was 99.7% and the “Compound 15 % Free” value [3, 5] was 0.3%. For the same compound, the “Compound 15 % Bound” value ([3]; aluminum hydroxide:Compound 15 ratio (w/w) 1.5:1, Tris buffer pH 8) was 91.1% and the “Compound 15 % Bound” value ([3]; aluminum hydroxide:Compound 15 ratio (w/w) 2:1, Tris buffer pH 7.5) was 99.7%.
